The conditions of the data set: [M+H]+; instrument: TW; Major Mix IMS/Tof Calibration Kit (Waters).

Regarding `CC(CCc1ccc(O)cc1)NCCc1ccc(O)c(O)c1` (configuration not stated) [Dobutamine], the “collision cross section (N2)” value turned out to be 168.2 Å².

As for `CCN1CC(CCN2CCOCC2)C(c2ccccc2)(c2ccccc2)C1=O` (configuration not stated) [Doxapram], the “collision cross section (N2)” value is on record as 183.4 Å².

With `CN(C)CCC=C1c2ccccc2COc2ccccc21` [Doxepin], the “collision cross section (N2)” value is given as 164.3 Å².

In the case of `CN1CCC[C@@H]1Cc1c[nH]c2ccc(CCS(=O)(=O)c3ccccc3)cc12` [Eletriptan], the “collision cross section (N2)” value stood at 186.1 Å².

On to `N=C(N)Nc1nc(CSCCC(=N)NS(N)(=O)=O)cs1` [Famotidine], for which the “collision cross section (N2)” value is on record as 165.9 Å².

As to `O=C(NCC1CCCCN1)c1cc(OCC(F)(F)F)ccc1OCC(F)(F)F` (configuration not stated) [Flecainide], the “collision cross section (N2)” value is reported as 192.2 Å².

With `OC(Cn1cncn1)(Cn1cncn1)c1ccc(F)cc1F` [Fluconazole], the “collision cross section (N2)” value amounted to 163.9 Å².

Regarding `CCOC(=O)c1ncn2c1CN(C)C(=O)c1cc(F)ccc1-2` [Flumazenil], the “collision cross section (N2)” value was 165.8 Å².

In the case of `CNCCC(Oc1ccc(C(F)(F)F)cc1)c1ccccc1` (configuration not stated) [Fluoxetine], the “collision cross section (N2)” value is 176.5 Å².

`COCCCC/C(=N\OCCN)c1ccc(C(F)(F)F)cc1` [Fluvoxamine]: the “collision cross section (N2)” value was 177 Å².

Consider `COc1ccc(CC(C)NCC(O)c2ccc(O)c(NC=O)c2)cc1` (configuration not stated) [Formoterol], for which the “collision cross section (N2)” value turned out to be 178.6 Å².

For `O=C1CN=C(c2ccccc2)c2cc(Cl)ccc2N1CC(F)(F)F` [Halazepam], the “collision cross section (N2)” value turned out to be 170.9 Å².

As for `CC(=O)O[C@H]1C=C[C@H]2[C@H]3Cc4ccc(O)c5c4[C@@]2(CCN3C)[C@H]1O5` [Heroin-M 6-MAM], the “collision cross section (N2)” value is on record as 175.1 Å².

For `C[C@]12CCC(=O)C=C1CC[C@@H]1[C@@H]2[C@@H](O)C[C@@]2(C)[C@H]1CC[C@]2(O)C(=O)CO` [Hydrocortisone], the “collision cross section (N2)” value worked out at 186.6 Å².

With `CN(C)CCCN1c2ccccc2CCc2ccccc21` [Imipramine], the “collision cross section (N2)” value came to 166.5 Å².

For the compound `CCCCn1cc(C(=O)c2cccc3ccccc23)c2ccccc21` [JWH-073], the “collision cross section (N2)” value is listed as 182.5 Å².

On to `CCN(CC)C(=O)[C@@H]1C=C2c3cccc4[nH]cc(c34)C[C@H]2N(C)C1` [LSD], for which the “collision cross section (N2)” value is listed as 179.5 Å².

On to `c1ccc([C@H]2CN3CCSC3=N2)cc1` [Levamisole], for which the “collision cross section (N2)” value is 144.6 Å².

For `CNC[C@@H](C)CN1c2ccccc2Sc2ccc(OC)cc21` [Levomepromazine-M N-desmethyl], the “collision cross section (N2)” value amounted to 174.3 Å².

As for `CCN(CC)CC(=O)Nc1c(C)cccc1C` [Lidocaine], the “collision cross section (N2)” value was 157.7 Å².

Turning to `CN(C)C(=O)C(CCN1CCC(O)(c2ccc(Cl)cc2)CC1)(c1ccccc1)c1ccccc1` [Loperamide], the “collision cross section (N2)” value turned out to be 222.7 Å².

For the compound `CN1C(=O)C(O)N=C(c2ccccc2Cl)c2cc(Cl)ccc21` (configuration not stated) [Lormetazepam], the “collision cross section (N2)” value is listed as 169.5 Å².

For `CCCCc1nc(Cl)c(CO)n1Cc1ccc(-c2ccccc2-c2nn[nH]n2)cc1` [Losartan], the “collision cross section (N2)” value stood at 200.3 Å².

As to `CCC(Cc1ccc2c(c1)OCO2)NC` (configuration not stated) [MBDB], the “collision cross section (N2)” value turned out to be 148.4 Å².

For `CCNC(C)Cc1ccc2c(c1)OCO2` (configuration not stated) [MDEA], the “collision cross section (N2)” value turned out to be 147.5 Å².

In the case of `CC(=O)Nc1cccc(O)c1` [Metacetamol], the “collision cross section (N2)” value came out at 129.8 Å².

Take `CC(=O)OC1CC[C@H]2[C@@H]3CC[C@H]4CC(=O)C=C(C)[C@]4(C)[C@H]3CC[C@]12C` (some centres not stated) [Metenolone acetate]: the “collision cross section (N2)” value is given as 187.6 Å².

`Cc1ccccc1-n1c(C)nc2ccccc2c1=O` [Methaqualone]: the “collision cross section (N2)” value was 155 Å².

For `CCNC1(c2cccc(OC)c2)CCCCC1=O` (configuration not stated) [Methoxetamine], the “collision cross section (N2)” value amounted to 159.6 Å².

Regarding `CCN(CC)CCNC(=O)c1cc(Cl)c(N)cc1OC` [Metoclopramide], the “collision cross section (N2)” value is listed as 173.2 Å².

In the case of `CN1CCN2c3ccccc3Cc3ccccc3C2C1` (configuration not stated) [Mianserin], the “collision cross section (N2)” value amounted to 164.5 Å².

Take `Cc1[nH]c(=O)c(C#N)cc1-c1ccncc1` [Milrinone]: the “collision cross section (N2)” value is on record as 150.4 Å².

As to `c1ccc2c(c1)Cc1cccnc1N1CCNCC21` (configuration not stated) [Mirtazapine-M N-desmethyl], the “collision cross section (N2)” value is recorded as 156.9 Å².

In the case of `CN1CCN2c3ncccc3Cc3ccccc3C2C1` (configuration not stated) [Mirtazapine], the “collision cross section (N2)” value came out at 161 Å².

Consider `Oc1ccc2c3c1OC1C(O)C=CC4C(C2)NCCC341` (configuration not stated) [Morphine-M Nor], for which the “collision cross section (N2)” value was found to be 161.5 Å².

Consider `COc1ccc(N2CCNCC2)cc1` [N-(p-Methoxyphenyl)piperazine (pMeOPP)], for which the “collision cross section (N2)” value was found to be 141.9 Å².

Turning to `C=CCN1CC[C@]23c4c5ccc(O)c4O[C@H]2C(=O)CC[C@@]3(O)[C@H]1C5` [Naloxone], the “collision cross section (N2)” value was found to be 171.8 Å².

Turning to `C[C@]12CC[C@H]3[C@@H](CCC4=CC(=O)CC[C@@H]43)[C@@H]1CC[C@@H]2O` [Nandrolone], the “collision cross section (N2)” value was determined as 167.5 Å².

For the compound `COCCOC(=O)C1=C(C)NC(C)=C(C(=O)OC(C)C)C1c1cccc([N+](=O)[O-])c1` (configuration not stated) [Nimodipine], the “collision cross section (N2)” value was 197.8 Å².

As to `CN/C(=C\[N+](=O)[O-])NCCSCc1csc(CN(C)C)n1` [Nizatidine], the “collision cross section (N2)” value is listed as 168.4 Å².

On to `COc1ccc2c(c1OC)C(=O)O[C@@H]2[C@H]1c2c(cc3c(c2OC)OCO3)CCN1C` [Noscapine], for which the “collision cross section (N2)” value was 194.3 Å².

As for `Cc1cc2c(s1)Nc1ccccc1N=C2N1CCN(C)CC1` [Olanzapine], the “collision cross section (N2)” value was found to be 175.5 Å².

On to `NC(=O)N1c2ccccc2CC(=O)c2ccccc21` [Oxcarbazepine], for which the “collision cross section (N2)” value is 153.8 Å².

For `COc1ccc(Cc2nccc3cc(OC)c(OC)cc23)cc1OC` [Papaverine], the “collision cross section (N2)” value amounted to 185.3 Å².

Turning to `Fc1ccc([C@@H]2CCNC[C@H]2COc2ccc3c(c2)OCO3)cc1` [Paroxetine], the “collision cross section (N2)” value worked out at 183.2 Å².

In the case of `CC(C)=CCN1CCC2(C)c3cc(O)ccc3CC1C2C` (configuration not stated) [Pentazocine], the “collision cross section (N2)” value was 173.5 Å².

`CCCC(NC)C(=O)c1ccccc1` (configuration not stated) [Pentedrone]: the “collision cross section (N2)” value turned out to be 145.7 Å².

With `CCN(CC)CCOCCOC(=O)C1(c2ccccc2)CCCC1` [Pentoxyverine], the “collision cross section (N2)” value is 175.5 Å².

On to `Cc1cc(=O)n(-c2ccccc2)n1C` [Phenazone], for which the “collision cross section (N2)” value was 137.7 Å².

Take `CC1NCCOC1c1ccccc1` (configuration not stated) [Phenmetrazine]: the “collision cross section (N2)” value came to 138.9 Å².

On to `CCC(c1ccccc1)c1c(O)c2ccccc2oc1=O` (configuration not stated) [Phenprocoumon], for which the “collision cross section (N2)” value amounted to 160 Å².

`O=c1[nH]c2ccccc2n1C1CCN(CCCC(c2ccc(F)cc2)c2ccc(F)cc2)CC1` [Pimozide]: the “collision cross section (N2)” value worked out at 214.4 Å².

On to `CCN(CC)CCOC(=O)c1ccc(N)cc1` [Procaine], for which the “collision cross section (N2)” value amounted to 154.6 Å².

For the compound `OC(CCN1CCCC1)(c1ccccc1)C1CCCCC1` (configuration not stated) [Procyclidine], the “collision cross section (N2)” value came to 172.6 Å².

As to `CC(C)NC(=N)NC(=N)Nc1ccc(Cl)cc1` [Proguanil], the “collision cross section (N2)” value is given as 161.3 Å².

For the compound `CN(C)CCCN1c2ccccc2Sc2ccccc21` [Promazine], the “collision cross section (N2)” value was 161.5 Å².

As for `CCCNCC(O)COc1ccccc1C(=O)CCc1ccccc1` (configuration not stated) [Propafenone], the “collision cross section (N2)” value is reported as 178.5 Å².

For `CNCCCC1c2ccccc2C=Cc2ccccc21` [Protriptyline], the “collision cross section (N2)” value is on record as 162.8 Å².

Take `CN(C)CCc1c[nH]c2cccc(O)c12` [Psilocin]: the “collision cross section (N2)” value turned out to be 144.8 Å².

As for `C=C[C@H]1C[N@@]2CC[C@H]1C[C@@H]2[C@@H](O)c1ccnc2ccc(OC)cc12` [Quinidine], the “collision cross section (N2)” value was found to be 175.8 Å².

Turning to `C=C[C@H]1C[N@@]2CC[C@H]1C[C@H]2[C@H](O)c1ccnc2ccc(OC)cc12` [Quinine], the “collision cross section (N2)” value is recorded as 177.4 Å².

Take `CC(C)(C)NCC(O)c1ccc(O)c(CO)c1` (configuration not stated) [Salbutamol]: the “collision cross section (N2)” value was 160 Å².

As for `CN1[C@@H]2C[C@@H](OC(=O)[C@H](CO)c3ccccc3)C[C@H]1[C@@H]1O[C@@H]12` [Scopolamine], the “collision cross section (N2)” value stood at 171.1 Å².

On to `C#CCN(C)[C@H](C)Cc1ccccc1` [Selegiline], for which the “collision cross section (N2)” value worked out at 142.1 Å².

For `O=c1[nH]ccn1CCN1CCC(c2cn(-c3ccc(F)cc3)c3ccc(Cl)cc23)CC1` [Sertindol-M dehydro], the “collision cross section (N2)” value turned out to be 213.8 Å².

Consider `O=C(O)c1cc(/N=N/c2ccc(S(=O)(=O)Nc3ccccn3)cc2)ccc1O` [Sulfasalazine], for which the “collision cross section (N2)” value is on record as 199.7 Å².

For the compound `CCN1CCCC1CNC(=O)c1cc(S(N)(=O)=O)ccc1OC` (configuration not stated) [Sulpiride], the “collision cross section (N2)” value is on record as 184.3 Å².

Take `CC(C)(C)c1ccc(C(O)CCCN2CCC(C(O)(c3ccccc3)c3ccccc3)CC2)cc1` (configuration not stated) [Terfenadine]: the “collision cross section (N2)” value is recorded as 229.8 Å².

As to `CCCCNc1ccc(C(=O)OCCN(C)C)cc1` [Tetracaine], the “collision cross section (N2)” value was 173.1 Å².

For `CN1c2ccccc2C(NCCCCCCC(=O)O)c2ccc(Cl)cc2S1(=O)=O` (configuration not stated) [Tianeptine], the “collision cross section (N2)” value was 197 Å².

Take `CN1CCN(CCCN2c3ccccc3Sc3ccc(C(F)(F)F)cc32)CC1` [Trifluoperazine]: the “collision cross section (N2)” value is 188.1 Å².

For the compound `CC(CN(C)C)CN1c2ccccc2CCc2ccccc21` (configuration not stated) [Trimipramine], the “collision cross section (N2)” value is recorded as 171.2 Å².

Source of the values: the C3SDB collision cross section collection.
